Data: ChEMBL document CHEMBL1201862, “PubChem BioAssay data set” (2004)
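Where inhibition never reached the appropriate level, the endpoint shown equals the highest concentration tested. Otherwise, values were interpolated linearly from a five-concentration, 48-hour dose response in 96-well plates. GI50: concentration for 50% inhibition of growth.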 Calls of active or inactive are those of the source. Rule as the data show it: active = GI50 up to about 1.1 µM and inactive = higher.

Columns and labels:
Assay in all cases: inhibition of tumour cell growth, NCI panel, 48 h
[1] = system: COLO 205
[2] = system: DU-145
[3] = system: EKVX
[4] = system: HCC 2998
[5] = system: HOP-62
[6] = system: HOP-92
[7] = system: Hs-578T
[8] = system: KM12
[9] = system: M14
[10] = system: MCF7
[11] = system: MOLT-4
[12] = system: NCI-H522
[13] = system: NCI/ADR-RES
[14] = system: OVCAR-4
[15] = system: SF-295
[16] = system: SF-539
[17] = system: SK-MEL-28
[18] = system: SK-OV-3
[19] = system: SNB-19
[20] = system: SR

Measured: GI50

CC(O)=C1C(=O)CCC1=O
inactive: [1] > 100 µM | [2] > 100 µM | [3] > 100 µM | [4] > 100 µM | [5] > 100 µM | [6] > 100 µM | [7] > 100 µM | [8] > 100 µM | [9] > 100 µM | [10] > 100 µM | [11] > 100 µM | [12] > 100 µM | [13] > 100 µM | [14] > 100 µM | [15] > 100 µM | [16] > 100 µM | [17] > 100 µM | [18] > 100 µM | [19] > 100 µM | [20] > 100 µM

O=C1N(Cc2ccccc2)C2CSCC2N1Cc1ccccc1 (stereo not given)
inactive: [1] 16.8 µM | [2] 50.9 µM | [3] 21.1 µM | [4] 26.5 µM | [5] 1.85 µM | [6] 23 µM | [7] 18.6 µM | [8] 23.8 µM | [9] 10.5 µM | [10] 31.4 µM | [11] 37.5 µM | [12] 3.94 µM | [13] 24.5 µM | [14] 69.2 µM | [15] 37.3 µM | [16] 24.5 µM | [17] 37.7 µM | [18] 27.4 µM | [19] 63.2 µM | [20] 37.2 µM

Cc1cc(C)n(-c2nsc3ccccc23)n1
inactive: [1] > 100 µM | [3] 91.4 µM | [4] > 100 µM | [5] > 100 µM | [6] 80.5 µM | [8] > 100 µM | [9] > 100 µM | [11] > 100 µM | [14] > 100 µM | [16] > 100 µM | [17] > 100 µM | [19] > 100 µM | [20] > 100 µM

O=C(NC(=O)c1cn(CCN2CCNCC2)c(=O)[nH]c1=O)OCc1ccccc1
inactive: [1] > 100 µM | [3] > 100 µM | [5] > 100 µM | [6] > 100 µM | [8] > 100 µM | [9] > 100 µM | [11] > 100 µM | [12] > 100 µM | [14] > 100 µM | [15] > 100 µM | [16] > 100 µM | [18] > 100 µM | [20] > 100 µM

CCOC(=O)C(NC(=O)CC)(Nc1ccccc1F)C(F)(F)F (stereo not given)
inactive: [1] > 100 µM | [2] > 100 µM | [3] > 100 µM | [4] > 100 µM | [6] > 100 µM | [7] > 100 µM | [8] > 100 µM | [9] > 100 µM | [10] > 100 µM | [11] > 100 µM | [12] > 100 µM | [13] 99.3 µM | [14] > 100 µM | [15] > 100 µM | [16] > 100 µM | [17] > 100 µM | [18] > 100 µM | [19] > 100 µM | [20] > 100 µM
